The record followed here is patent US11866695B2, “Methods and systems and related compositions for mixtures separation with a solid matrix” (CALIFORNIA INSTITUTE OF TECHNOLOGY, priority 2019, dated 2024).

Structures are written as SMILES. Entries after “also recorded” stand apart in the source; their conditions may differ.

Common to all, as to assay type: biochemical
In assay [1] the test system is LAMP spiked with 5×104 copies λ phage DNA. The assay is described as follows: TPW screen with LAMP (1 μL wash candidate added to 10 μL reaction). The conditions noted are these: 1 μL candidate in 11 μL total. The method, then:
LAMP primers (Integrated DNA Technologies (IDT), Coralville, Iowa, USA) were designed, ordered, and added at NEB's recommended concentrations of […] FIP/BIP, 0.2μM F3/B3, and […] LoopF/B.
Each 96-well plate was sealed and briefly spun. […] Time-to-positive (TTP) was determined when the software's automated baseline corrected fluorescence reached 1000 RFU.
Criterion 1a was investigated directly by performing qPCR and LAMP reactions. Reactions were spiked with λ phage DNA, diluted up to 10 μL, and an additional 1 μL of different wash buffer candidates was added to a total of 11 μL. […] As an experimental control, a “No Additive” condition was tested, which was a 10 μL reaction with optimized reaction conditions and no inhibitors. To control for the effects of a 1 μL dilution on the reaction, a “Water” condition which was an 11 μL reaction with no inhibitors was also tested.

The test system of assay [2] is λ phage DNA. The assay is described as follows: Zymo Quick-DNA/RNA MagBead extraction with air dry replaced by TPW, qPCR. The conditions noted are these: 10× dilution of eluent into qPCR. The procedure: qPCR reactions contained 1× Bio-Rad SsoFast Supermix (1725201, Bio-Rad), PCR primers (IDT) at […] each, and were supplemented with nuclease-free water up to 10 μL. Each 96-well plate (thin-wall clear well, HSP9641, Bio-Rad) was sealed (Microseal B, MSB1001, Bio-Rad) and briefly spun in a Mini Plate Spinner Centrifuge (14-100-141, Fisher Scientific). Heating and real-time imaging were performed on the Bio-Rad CFX-96 Touch Real-Time PCR Detection System by heating to 95° C. for 5 min, cycling 40 times between 95° C. for 15 s, 60° C. for 15 s, and 72° C. for 20 s, and taking a melt-curve analysis. For the E. coli DNA dilution experiment, qPCR was run for 60 cycles. Fluorescence readings were taken at the end of each extension step. Quantification cycle (Cq) was determined when the software's automated baseline corrected fluorescence reached 200 RFU.
The Zymo Quick-DNA/RNA Viral MagBead (R2140) was tested. For the Zymo MagBead kit, 200 μL sample was mixed with 200 μL Zymo 2×DNA/RNA Shield, 4 μL Proteinase K, and 800 μL Zymo Viral DNA/RNA Buffer. 1204 μL was added to each tube, mixed with 20 μL MagBinding Beads, and placed on an UltraRocker Rocking Platform (1660709EDU, Bio-Rad, Hercules, Calif., USA) for 10 min at max speed. Tubes were transferred to a DynaMag-2 magnetic rack (12321D, Thermo Fisher Scientific) and manufacturer instructions was followed for the remainder of the protocol. […]
In general terms: In qPCR the cycle at which signal appears reflects the starting amount.

Assay [3] deals with LAMP reaction mix. The assay is described as follows: 3-step Zymo ZR extraction with viral wash buffer replaced, LAMP with 2× dilution of eluent. As to conditions: wash replaces viral wash buffer; 5 μL eluent in 10 μL. The method, then: Three different silica-column kits were tested, including: Zymo ZR Viral DNA/RNA Kit (outdated protocol, D7021), Zymo Quick-DNA/RNA Kit (updated protocol, D7021), and the QIAquick PCR Purification Kit (28104, Qiagen). For all silica-column kits, fresh collection tubes were used after each spin and centrifugation speeds were set to 16,000×g. Centrifugation was performed on either an Eppendorf 5415D centrifuge (Eppendorf, Hauppauge, N.Y., USA) or a Thermo Fisher Scientific AccuSpin Micro 17R centrifuge (13-100-676). It was noted that the QIAquick protocol calls for 17,900×g, but instead was run at 16,000×g which was the max speed for the Eppendorf 5415D. For both Zymo kits, 750 μL lysed sample was prepared by mixing 125 μL sample with 125 μL Zymo 2×DNA/RNA Shield and 500 μL Viral DNA/RNA Buffer. For the Zymo ZR Viral DNA/RNA kit, 750 μL lysed sample was centrifuge for 1 min, 500 μL Zymo Viral Wash Buffer was centrifuged for 2 min, and 50 μL nuclease-free water was centrifuged for 30 s into a clean 1.5 mL tube. Optionally, either a dry spin or 300 μL TPW was centrifuged for 2 min in between the Viral Wash Buffer and elution steps. […] For the QIAquick PCR Purification Kit, 125 μL sample was mixed with 625 μL Buffer PB without indicator. 750 μL lysed sample was centrifuged for 30 s, followed by 750 μL Buffer PE for 30 s, a dry spin for 1 min, and 50 μL nuclease-free water for 1 min. Optionally, the dry spin was skipped or the dry spin was replaced with a 300 μL TPW and centrifuged for 1 min.
Exchanging the ethanol wash for a TPW could be useful for applications in which the starting sample is already relatively pure. For this experiment, Zymo ZR kit was used, which has three centrifugation steps: lysis (sample, shield, lysis buffer), wash (ethanol-based viral wash buffer), and elution (water). […] An aliquot of 5 μL of the resulting eluent was added to 5 μL of LAMP reaction mix and amplified at 68° C. Eluent from the manufacturer protocol amplified in 5.7 min. […]

With `CCCCCCCCCCCO` [1-undecanol], the “Avg TTP” value in assay [1] (N.D. = not detected within 40 min) was determined as 6.70 min. The same compound yielded a ΔTTP in assay [1] (minus the No additive control) of 0.16 min. Moreover, the “cycle delay vs manufacturer protocol” value in assay [2] is 1.1 cycle.
Turning to `CCO` [Ethanol, ethanol], the “LAMP performance of eluent” value in assay [3] is given as “slightly outperforms the viral wash buffer; also recorded: performed slightly better (earlier TTP) than the viral wash buffer”.
